In PubChem BioAssay (NCI):
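48-hour exposure; five concentrations; linearly interpolated endpoints. Abbreviation: GI50, concentration required for 50% inhibition of growth. TGI: total growth inhibition.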

Experiments:
Assay in all cases: inhibition of tumour cell growth, NCI panel, 48 h
[1] = system: HT29 colon
[2] = system: HCT-15 colon
[3] = system: COLO 205 colon
[4] = system: HOP-62 NSCLC
[5] = system: U251 CNS
[6] = system: MDA-MB-435
[7] = system: M14 melanoma
[8] = system: NCI-H23 lung
[9] = system: A498 renal
[10] = system: SK-MEL-28 melanoma

In the case of `COC(=O)C1=CO[C@@H](OC2OC(CO)C(O)C(O)C2O)[C@H]2[C@@H](C)[C@@H](O)[C@@H](O)[C@@H]12` (some centres undefined), the TGI [1] is reported as over 100 µM, the TGI [2] is reported as over 100 µM and the TGI [3] is reported as over 100 µM. It also gave a TGI [4] of over 100 µM, a TGI [5] of over 100 µM and a TGI [6] of over 100 µM. It also gave a TGI [7] of over 100 µM, a TGI [8] of over 100 µM and a TGI [9] of over 100 µM. For the same molecule, the TGI [10] was over 100 µM.
Molecule `N/C(=N/N=C/c1ccccc1)N/N=C\c1ccccc1` has a GI50 [1] of 3.25 µM, a TGI [1] of 52 µM and a GI50 [2] of 3.72 µM. For the same molecule, the TGI [2] was 30.3 µM, the GI50 [3] was 3.66 µM and the TGI [3] was 14.7 µM. For the same molecule, the GI50 [4] was 9.71 µM, the TGI [4] was over 100 µM and the GI50 [5] was 5.08 µM. It also gave a TGI [5] of 70.9 µM, a GI50 [6] of 1.76 µM and a TGI [6] of 6.61 µM. The GI50 [7] was 3.4 µM, the TGI [7] was 29.8 µM and the GI50 [8] was 6.78 µM. The TGI [8] was over 100 µM, the GI50 [9] was 6.03 µM and the TGI [9] was over 100 µM. It also gave a GI50 [10] of 10.7 µM and a TGI [10] of 33.3 µM.
With `COc1cccc(/C=N/NC(=O)c2ccccc2N2CCCC2)c1O` the GI50 [1] was 30.4 µM, the TGI [1] was over 100 µM and the GI50 [2] was 1.76 µM. The TGI [2] was over 100 µM, the GI50 [3] was 3.03 µM and the TGI [3] was over 100 µM. It also gave a GI50 [4] of 3.58 µM, a TGI [4] of over 100 µM and a GI50 [5] of 4.27 µM. It also gave a TGI [5] of over 100 µM, a GI50 [6] of 18.3 µM and a TGI [6] of over 100 µM. It also gave a GI50 [7] of 3.08 µM, a TGI [7] of 24.2 µM and a GI50 [8] of 7.85 µM. For the same molecule, the TGI [8] was over 100 µM, the GI50 [9] was 4.97 µM and the TGI [9] was over 100 µM. For the same molecule, the GI50 [10] was 5.27 µM and the TGI [10] was over 100 µM.
For `COc1cc2c(cc1Cc1cccc(Cl)c1F)c(=O)c(C(=O)O)cn2[C@@H](CO)C(C)C`, the GI50 [1] was 2.62 µM, the TGI [1] was 5.56 µM and the GI50 [2] was 3.64 µM. For the same molecule, the TGI [2] was 14.4 µM, the GI50 [3] was 2.64 µM and the TGI [3] was 6.29 µM. It also gave a GI50 [4] of 5.22 µM, a TGI [4] of 18.6 µM and a GI50 [5] of 3.17 µM. For the same molecule, the TGI [5] was 12.2 µM, the GI50 [6] was 3.84 µM and the TGI [6] was 15.2 µM. It also gave a GI50 [7] of 3.65 µM, a TGI [7] of 15 µM and a GI50 [8] of 3.18 µM. For the same molecule, the TGI [8] was 12.4 µM, the GI50 [9] was 2.26 µM and the TGI [9] was 14.2 µM. It also gave a GI50 [10] of 6.63 µM and a TGI [10] of 21.9 µM.
`S=C(NCCNC(=S)[S][Sn]([c]1ccccc1)([c]1ccccc1)[c]1ccccc1)[S][Sn]([c]1ccccc1)([c]1ccccc1)[c]1ccccc1` was tested, and the GI50 [1] was 0.019 µM, the TGI [1] was 0.0584 µM and the GI50 [2] was 0.0177 µM. It also gave a TGI [2] of 0.0696 µM, a GI50 [3] of 0.0166 µM and a TGI [3] of 0.0411 µM. It also gave a GI50 [4] of 0.0677 µM, a TGI [4] of 0.147 µM and a GI50 [5] of 0.0187 µM. For the same molecule, the TGI [5] was 0.064 µM, the GI50 [6] was 0.0153 µM and the TGI [6] was 0.0559 µM. The GI50 [7] was 0.0267 µM, the TGI [7] was 0.0976 µM and the GI50 [8] was 0.0273 µM. The TGI [8] was 0.119 µM, the GI50 [9] was 0.0231 µM and the TGI [9] was 0.0849 µM. For the same molecule, the GI50 [10] was 0.0237 µM and the TGI [10] was 0.0817 µM.
`NC(N)=NC(N)=Nc1cnccn1` gave a TGI [1] of over 100 µM, a TGI [2] of over 100 µM and a TGI [3] of over 100 µM. The TGI [4] was over 100 µM, the TGI [5] was over 100 µM and the TGI [6] was over 100 µM. It also gave a TGI [7] of over 100 µM, a TGI [8] of over 100 µM and a TGI [9] of over 100 µM. For the same molecule, the TGI [10] was over 100 µM.
`Cn1cc(C2=C(c3c4n(c5ccccc35)CCC(CN)C4)C(=O)NC2=O)c2ccccc21` (centres undefined) showed a GI50 [1] of 2.67 µM, a TGI [1] of 5.95 µM and a GI50 [2] of 4.02 µM. The TGI [2] was 8.65 µM, the GI50 [3] was 1.63 µM and the TGI [3] was 5.15 µM. It also gave a GI50 [4] of 3.12 µM, a TGI [4] of 6.62 µM and a GI50 [5] of 2.74 µM. The TGI [5] was 6 µM, the GI50 [6] was 2.52 µM and the TGI [6] was 5.97 µM. It also gave a GI50 [7] of 3.46 µM, a TGI [7] of 7.58 µM and a GI50 [8] of 3.6 µM. It also gave a TGI [8] of 7.74 µM, a GI50 [9] of 4.02 µM and a TGI [9] of 7.6 µM. It also gave a GI50 [10] of 3.82 µM and a TGI [10] of 7.31 µM.
Work on `CCN1C(=O)N(CC)C2C1NN=c1s/c(=C\c3ccco3)c(=O)n12` (centres undefined) yielded a GI50 [1] of 0.361 µM, a TGI [1] of over 100 µM and a GI50 [2] of 0.481 µM. The TGI [2] was over 100 µM, the GI50 [3] was 0.403 µM and the TGI [3] was over 23.6 µM. The GI50 [4] was 0.722 µM, the TGI [4] was over 100 µM and the GI50 [5] was 0.576 µM. The TGI [5] was over 100 µM, the GI50 [6] was 0.138 µM and the TGI [6] was 0.58 µM. The GI50 [7] was 0.415 µM, the TGI [7] was over 35.5 µM and the GI50 [8] was 1.1 µM. It also gave a TGI [8] of over 100 µM, a GI50 [9] of 0.39 µM and a GI50 [10] of over 22.8 µM. For the same molecule, the TGI [10] was over 100 µM.
`CC1=NN(c2ccc(S(=O)(=O)O)cc2)C(=O)/C1=C/c1ccc(Cl)cc1` showed a TGI [1] of over 100 µM, a TGI [2] of over 100 µM and a TGI [3] of over 100 µM. It also gave a TGI [4] of over 100 µM, a TGI [5] of over 100 µM and a TGI [6] of over 100 µM. The TGI [7] was over 100 µM, the TGI [8] was over 100 µM and the TGI [9] was over 100 µM. For the same molecule, the TGI [10] was over 100 µM.
Work on `C[C@@H]1CCC([C@@H](C)[C@H]2CC[C@H]3[C@@H]4CC[C@H]5C[C@@H](O)CC[C@]5(C)[C@H]4CC[C@]23C)=NC1` yielded a TGI [1] of over 55.4 µM, a TGI [2] of 44.8 µM and a TGI [3] of over 53.2 µM. The TGI [4] was over 51.3 µM, the TGI [5] was over 86.4 µM and the TGI [6] was over 100 µM. For the same molecule, the TGI [7] was over 48.9 µM, the TGI [8] was over 100 µM and the TGI [9] was over 100 µM. For the same molecule, the TGI [10] was over 77.3 µM.
Molecule `CC1(C)CC[C@]2(C(=O)O)CC[C@]3(C)C(=CC[C@@H]4[C@@]5(C)C[C@H](O)[C@H](O)[C@@](C)(C(=O)O)[C@@H]5CC[C@]43C)[C@@H]2C1` has a TGI [1] of over 100 µM, a TGI [2] of over 100 µM and a TGI [3] of over 100 µM. It also gave a TGI [4] of over 100 µM, a TGI [5] of over 100 µM and a TGI [6] of over 100 µM. For the same molecule, the TGI [7] was over 100 µM, the TGI [8] was over 100 µM and the TGI [9] was over 100 µM. It also gave a TGI [10] of over 100 µM.
With `CCCCCCCCC/C(=N\NC(=O)c1ccncc1)c1ccc(O)c(O)c1O` the GI50 [1] was 0.513 µM, the TGI [1] was 32.9 µM and the GI50 [2] was 0.0635 µM. For the same molecule, the TGI [2] was over 100 µM, the GI50 [3] was 0.617 µM and the TGI [3] was 17.4 µM. The GI50 [4] was 0.09 µM, the TGI [4] was 16 µM and the GI50 [5] was 0.11 µM. It also gave a TGI [5] of 65.9 µM, a GI50 [6] of 0.456 µM and a TGI [6] of over 100 µM. The GI50 [7] was 0.175 µM, the TGI [7] was 1.14 µM and the GI50 [8] was 0.393 µM. It also gave a TGI [8] of 29.1 µM, a GI50 [9] of 1.56 µM and a TGI [9] of over 100 µM. For the same molecule, the GI50 [10] was 0.384 µM and the TGI [10] was over 100 µM.
`COc1ccc2c(c1)oc(=O)c1cc(OC)ccc12` gave a GI50 [1] of over 100 µM, a TGI [1] of over 100 µM and a GI50 [2] of over 100 µM. For the same molecule, the TGI [2] was over 100 µM, the GI50 [3] was over 100 µM and the TGI [3] was over 100 µM. For the same molecule, the GI50 [4] was over 100 µM, the TGI [4] was over 100 µM and the GI50 [5] was over 100 µM. For the same molecule, the TGI [5] was over 100 µM, the GI50 [6] was over 100 µM and the TGI [6] was over 100 µM. For the same molecule, the GI50 [7] was over 100 µM, the TGI [7] was over 100 µM and the GI50 [8] was over 100 µM. It also gave a TGI [8] of over 100 µM, a GI50 [9] of 1.56 µM and a TGI [9] of 99 µM. The GI50 [10] was over 100 µM and the TGI [10] was over 100 µM.
